Source: ChEMBL document CHEMBL5291721, “A preclinical secondary pharmacology resource illuminates target-adverse drug reaction associations of marketed drugs” (Nat Commun, 2023)

Assays:
[1] = target: T1, Adenosine receptor A3 (Homo sapiens, UniProt P0DMS8)
T1 sequence (P0DMS8 whole entry): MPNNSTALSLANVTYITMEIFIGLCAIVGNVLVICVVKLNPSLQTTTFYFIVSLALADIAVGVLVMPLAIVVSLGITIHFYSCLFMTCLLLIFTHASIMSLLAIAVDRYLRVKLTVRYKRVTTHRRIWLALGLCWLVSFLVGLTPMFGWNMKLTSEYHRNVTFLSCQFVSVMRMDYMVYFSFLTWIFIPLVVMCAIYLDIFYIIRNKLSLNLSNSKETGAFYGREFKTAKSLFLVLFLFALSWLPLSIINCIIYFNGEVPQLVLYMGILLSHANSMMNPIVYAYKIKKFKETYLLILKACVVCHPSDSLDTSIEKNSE

[2] = target: T2, Alpha-1A adrenergic receptor (Homo sapiens, UniProt P35348); format: functional, cell-based
T2 sequence (P35348 whole entry): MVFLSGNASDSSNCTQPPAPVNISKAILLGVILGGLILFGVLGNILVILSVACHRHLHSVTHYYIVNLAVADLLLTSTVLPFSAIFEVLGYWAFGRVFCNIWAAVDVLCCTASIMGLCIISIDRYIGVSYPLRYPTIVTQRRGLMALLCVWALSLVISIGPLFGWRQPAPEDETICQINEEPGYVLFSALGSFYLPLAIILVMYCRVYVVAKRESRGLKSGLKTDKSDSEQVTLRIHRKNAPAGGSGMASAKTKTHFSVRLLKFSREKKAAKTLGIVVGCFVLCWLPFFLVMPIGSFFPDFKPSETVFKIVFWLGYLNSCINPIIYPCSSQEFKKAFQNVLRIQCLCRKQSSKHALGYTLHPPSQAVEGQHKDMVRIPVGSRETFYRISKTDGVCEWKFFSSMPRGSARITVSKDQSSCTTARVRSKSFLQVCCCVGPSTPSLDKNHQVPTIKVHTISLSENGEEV

[3] = target: Vasopressin V1a receptor (Homo sapiens, UniProt P37288)
[4] = target: T3, Endothelin-1 receptor (Homo sapiens, UniProt P25101)
T3 sequence (P25101 whole entry): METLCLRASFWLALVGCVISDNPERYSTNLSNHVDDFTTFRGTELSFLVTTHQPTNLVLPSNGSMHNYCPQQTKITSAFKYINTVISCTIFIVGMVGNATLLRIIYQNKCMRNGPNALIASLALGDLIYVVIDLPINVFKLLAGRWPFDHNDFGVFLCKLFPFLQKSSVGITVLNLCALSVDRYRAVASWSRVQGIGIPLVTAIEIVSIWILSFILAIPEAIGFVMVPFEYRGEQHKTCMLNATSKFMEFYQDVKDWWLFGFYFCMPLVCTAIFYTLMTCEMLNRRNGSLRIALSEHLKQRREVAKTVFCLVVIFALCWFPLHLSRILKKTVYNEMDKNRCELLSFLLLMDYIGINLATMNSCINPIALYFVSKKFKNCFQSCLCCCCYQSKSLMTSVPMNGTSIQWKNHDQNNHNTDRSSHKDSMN

[5] = target: T4, Estrogen receptor (Homo sapiens, UniProt P03372)
T4 sequence (P03372 whole entry): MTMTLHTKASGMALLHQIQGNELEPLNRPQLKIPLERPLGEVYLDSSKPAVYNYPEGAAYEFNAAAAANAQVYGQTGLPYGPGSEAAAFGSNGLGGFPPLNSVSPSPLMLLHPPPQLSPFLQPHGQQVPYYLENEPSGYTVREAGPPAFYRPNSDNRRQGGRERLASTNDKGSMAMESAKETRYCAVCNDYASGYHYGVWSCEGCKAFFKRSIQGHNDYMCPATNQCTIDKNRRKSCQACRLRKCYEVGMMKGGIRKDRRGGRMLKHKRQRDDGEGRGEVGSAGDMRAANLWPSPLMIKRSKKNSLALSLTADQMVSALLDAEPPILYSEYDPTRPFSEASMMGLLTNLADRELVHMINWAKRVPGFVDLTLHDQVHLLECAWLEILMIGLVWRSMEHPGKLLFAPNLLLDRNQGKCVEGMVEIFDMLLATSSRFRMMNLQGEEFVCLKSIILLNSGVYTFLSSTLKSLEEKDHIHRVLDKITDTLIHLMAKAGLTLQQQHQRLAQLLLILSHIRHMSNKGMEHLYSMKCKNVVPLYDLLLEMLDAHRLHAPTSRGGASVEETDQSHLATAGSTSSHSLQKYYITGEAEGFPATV

[6] = target: Melanocortin receptor 4 (Homo sapiens, UniProt P32245)
[7] = target: cGMP-inhibited 3',5'-cyclic phosphodiesterase 3A (Homo sapiens, UniProt Q14432); format: functional
[8] = target: T5, Progesterone receptor (Homo sapiens, UniProt P06401)
T5 sequence (P06401 whole entry): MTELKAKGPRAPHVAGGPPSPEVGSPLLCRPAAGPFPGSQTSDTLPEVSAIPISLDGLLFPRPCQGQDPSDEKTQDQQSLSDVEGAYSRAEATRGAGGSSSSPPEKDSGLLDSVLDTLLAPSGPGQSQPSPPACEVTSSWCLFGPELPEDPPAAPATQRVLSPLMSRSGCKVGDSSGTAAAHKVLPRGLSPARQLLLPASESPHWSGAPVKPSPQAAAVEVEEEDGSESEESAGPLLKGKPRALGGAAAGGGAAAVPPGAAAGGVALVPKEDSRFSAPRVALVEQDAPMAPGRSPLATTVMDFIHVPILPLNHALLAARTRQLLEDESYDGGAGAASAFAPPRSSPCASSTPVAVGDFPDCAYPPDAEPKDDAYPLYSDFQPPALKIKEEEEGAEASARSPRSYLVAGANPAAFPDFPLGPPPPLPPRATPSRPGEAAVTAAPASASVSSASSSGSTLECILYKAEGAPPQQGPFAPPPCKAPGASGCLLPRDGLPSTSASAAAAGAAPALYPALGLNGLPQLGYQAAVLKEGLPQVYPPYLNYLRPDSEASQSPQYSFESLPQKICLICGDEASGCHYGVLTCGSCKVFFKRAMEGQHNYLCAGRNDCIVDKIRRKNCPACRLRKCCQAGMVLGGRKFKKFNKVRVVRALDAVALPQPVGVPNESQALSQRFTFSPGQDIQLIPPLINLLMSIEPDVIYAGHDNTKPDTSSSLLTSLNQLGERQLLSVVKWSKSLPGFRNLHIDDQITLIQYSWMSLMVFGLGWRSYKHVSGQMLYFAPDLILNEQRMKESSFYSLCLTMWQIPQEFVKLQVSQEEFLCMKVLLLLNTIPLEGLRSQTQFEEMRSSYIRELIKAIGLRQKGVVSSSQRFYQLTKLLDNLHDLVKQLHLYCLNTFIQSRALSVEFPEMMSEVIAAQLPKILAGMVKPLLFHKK

[9] = target: Prostaglandin G/H synthase 1 (Homo sapiens, UniProt P23219); format: functional
Note: assay procedure not described here.

Chain of Melanocortin receptor 4 (P32245 whole entry): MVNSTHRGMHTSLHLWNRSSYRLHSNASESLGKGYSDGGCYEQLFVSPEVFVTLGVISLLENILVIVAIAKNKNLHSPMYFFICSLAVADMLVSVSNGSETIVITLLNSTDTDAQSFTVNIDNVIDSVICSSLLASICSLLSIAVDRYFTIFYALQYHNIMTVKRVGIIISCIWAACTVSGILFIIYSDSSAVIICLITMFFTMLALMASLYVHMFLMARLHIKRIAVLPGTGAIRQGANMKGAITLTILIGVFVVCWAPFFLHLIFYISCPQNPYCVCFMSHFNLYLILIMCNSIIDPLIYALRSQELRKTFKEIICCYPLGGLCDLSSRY
Chain of cGMP-inhibited 3',5'-cyclic phosphodiesterase 3A (Q14432 whole entry): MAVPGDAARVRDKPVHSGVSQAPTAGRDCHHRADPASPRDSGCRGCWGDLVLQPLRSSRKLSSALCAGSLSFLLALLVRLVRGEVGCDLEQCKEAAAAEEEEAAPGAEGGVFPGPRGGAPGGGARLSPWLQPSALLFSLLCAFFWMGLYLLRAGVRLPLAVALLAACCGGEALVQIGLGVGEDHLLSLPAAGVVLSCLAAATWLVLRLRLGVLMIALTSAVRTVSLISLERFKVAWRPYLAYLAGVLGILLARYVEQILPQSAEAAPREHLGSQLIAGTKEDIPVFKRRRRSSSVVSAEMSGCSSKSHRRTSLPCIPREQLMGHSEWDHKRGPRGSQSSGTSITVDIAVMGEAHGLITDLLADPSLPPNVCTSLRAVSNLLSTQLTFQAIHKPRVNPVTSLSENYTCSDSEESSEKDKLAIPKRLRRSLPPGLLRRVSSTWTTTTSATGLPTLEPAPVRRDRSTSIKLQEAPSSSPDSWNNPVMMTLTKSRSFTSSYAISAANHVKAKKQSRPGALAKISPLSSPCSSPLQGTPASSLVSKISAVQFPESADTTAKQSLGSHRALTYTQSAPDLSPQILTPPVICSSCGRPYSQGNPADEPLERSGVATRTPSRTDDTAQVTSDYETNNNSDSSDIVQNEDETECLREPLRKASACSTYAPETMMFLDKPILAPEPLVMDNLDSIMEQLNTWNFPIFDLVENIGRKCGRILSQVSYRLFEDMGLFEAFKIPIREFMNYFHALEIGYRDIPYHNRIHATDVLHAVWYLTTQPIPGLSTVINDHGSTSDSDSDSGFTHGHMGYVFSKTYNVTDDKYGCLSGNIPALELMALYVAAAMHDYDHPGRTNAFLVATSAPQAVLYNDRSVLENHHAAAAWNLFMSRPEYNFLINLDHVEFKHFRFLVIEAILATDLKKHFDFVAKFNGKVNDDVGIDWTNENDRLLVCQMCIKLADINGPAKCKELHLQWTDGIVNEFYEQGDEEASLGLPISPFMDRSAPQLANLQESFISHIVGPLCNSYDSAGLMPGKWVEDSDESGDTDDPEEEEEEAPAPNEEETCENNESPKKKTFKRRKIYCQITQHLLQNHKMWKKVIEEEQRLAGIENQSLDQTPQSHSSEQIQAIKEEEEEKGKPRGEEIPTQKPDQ
Chain of Vasopressin V1a receptor (P37288 whole entry): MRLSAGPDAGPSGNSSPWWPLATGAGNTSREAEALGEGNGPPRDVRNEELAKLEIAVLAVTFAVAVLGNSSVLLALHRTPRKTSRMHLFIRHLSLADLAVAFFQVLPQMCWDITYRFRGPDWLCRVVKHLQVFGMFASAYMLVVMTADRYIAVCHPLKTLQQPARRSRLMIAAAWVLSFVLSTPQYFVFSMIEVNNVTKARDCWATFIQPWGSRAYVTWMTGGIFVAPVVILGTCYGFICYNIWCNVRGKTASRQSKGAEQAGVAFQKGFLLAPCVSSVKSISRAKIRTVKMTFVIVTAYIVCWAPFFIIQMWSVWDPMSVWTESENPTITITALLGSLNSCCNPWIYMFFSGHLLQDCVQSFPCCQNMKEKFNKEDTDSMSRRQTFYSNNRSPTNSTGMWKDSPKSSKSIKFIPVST
Chain of Prostaglandin G/H synthase 1 (P23219 whole entry): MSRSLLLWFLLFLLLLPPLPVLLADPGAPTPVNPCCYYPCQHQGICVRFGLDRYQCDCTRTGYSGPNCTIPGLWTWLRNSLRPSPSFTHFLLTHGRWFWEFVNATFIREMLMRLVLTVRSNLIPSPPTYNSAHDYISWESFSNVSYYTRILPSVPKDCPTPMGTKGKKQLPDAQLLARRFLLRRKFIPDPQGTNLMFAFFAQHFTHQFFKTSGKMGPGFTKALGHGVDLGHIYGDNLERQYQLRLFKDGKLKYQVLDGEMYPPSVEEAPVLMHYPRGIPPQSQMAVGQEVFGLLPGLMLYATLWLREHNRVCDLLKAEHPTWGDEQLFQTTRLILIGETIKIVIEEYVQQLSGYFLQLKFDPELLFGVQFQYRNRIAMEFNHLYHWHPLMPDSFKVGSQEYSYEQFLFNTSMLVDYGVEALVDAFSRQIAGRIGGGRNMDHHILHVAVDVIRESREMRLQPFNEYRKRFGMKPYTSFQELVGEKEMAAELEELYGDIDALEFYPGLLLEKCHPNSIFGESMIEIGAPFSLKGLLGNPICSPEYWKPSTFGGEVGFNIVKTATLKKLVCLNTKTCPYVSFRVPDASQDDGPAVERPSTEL

## CN1CCN(C2=Nc3ccccc3Oc3ccc(Cl)cc32)CC1 [LOXAPINE]
[1]
  AC50: 27.4 µM
[2]
  AC50: > 30 µM
[3]
  AC50: > 10 µM
[4]
  AC50: > 30 µM
[5]
  AC50: > 30 µM
[6]
  AC50: > 30 µM
[7]
  AC50: > 30 µM
[8]
  AC50: > 30 µM
[9]
  AC50: > 30 µM
